Tests used:
Assay in all cases: Cell panel screen (CellTiter-Glo)
Format in all cases: cell-based, human
HGC-27 = HGC-27 (Stomach), 20 micromolar, 72 hrs
Procedure, shortened: (§1)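 72 h compound exposure at 20 μM final; ATP luminescence endpoint; % inhibition vs DMSO control.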

T47D = T47D (Breast), 20 micromolar, 72 hrs
Procedure, shortened: as §1

CCF-STTG1 = CCF-STTG1 (Brain), 20 micromolar, 72 hrs
Procedure, shortened: as §1

HT-1197 = HT-1197 (Urinary bladder), 20 micromolar, 72 hrs
Procedure, shortened: as §1

T98G = T98G (Brain), 20 micromolar, 72 hrs
Procedure, shortened: as §1

HPAF-II = HPAF-II (Pancreas), 20 micromolar, 72 hrs
Procedure, shortened: as §1

NCI-H1770 = NCI-H1770 (Lung), 20 micromolar, 72 hrs
Procedure, shortened: as §1

A498 = A498 (listed under Lung), 20 micromolar, 72 hrs
Procedure, shortened: as §1

HCC1395 = HCC1395 (Breast), 20 micromolar, 72 hrs
Procedure, shortened: as §1

ZR-75-30 = ZR-75-30 (Breast), 20 micromolar, 72 hrs
Procedure, shortened: as §1

HCC1569 = HCC1569 (Breast), 20 micromolar, 72 hrs
Procedure, shortened: as §1

SW13 = SW13 (Adrenal gland), 20 micromolar, 72 hrs
Procedure, shortened: as §1

NCI-H1623 = NCI-H1623 (Lung), 20 micromolar, 72 hrs
Procedure, shortened: as §1

M059J = M059J (Brain), 20 micromolar, 72 hrs
Procedure, shortened: as §1

A704 = A704 (Kidney), 20 micromolar, 72 hrs
Procedure, shortened: as §1

BT-549 = BT-549 (Breast), 20 micromolar, 72 hrs
Procedure, shortened: as §1

Bel-7402 = Bel-7402 (Liver), 20 micromolar, 72 hrs
Procedure, shortened: as §1

RL95 = RL95 (Uterus), 20 micromolar, 72 hrs
Procedure, shortened: as §1

HCC1937 = HCC1937 (Breast), 20 micromolar, 72 hrs
Procedure, shortened: as §1

C8166 = C8166 (Leukemia), 20 micromolar, 72 hrs
Procedure, shortened: as §1

CW-2 = CW-2 (Colon), 20 micromolar, 72 hrs
Procedure, shortened: as §1

NCI-H2347 = NCI-H2347 (Lung), 20 micromolar, 72 hrs
Procedure, shortened: as §1

J82 = J82 (Urinary bladder), 20 micromolar, 72 hrs
Procedure, shortened: as §1

C3A = C3A (Liver), 20 micromolar, 72 hrs
Procedure, shortened: as §1

BT-474 = BT-474 (Breast), 20 micromolar, 72 hrs
Procedure, shortened: as §1

NCI-H1694 = NCI-H1694 (Lung), 20 micromolar, 72 hrs
Procedure, shortened: as §1

NCI-H28 = NCI-H28 (Lung), 20 micromolar, 72 hrs
Procedure, shortened: as §1

HCC1599 = HCC1599 (Breast), 20 micromolar, 72 hrs
Procedure, shortened: as §1

TCCSUP = TCCSUP (Urinary bladder), 20 micromolar, 72 hrs
Procedure, shortened: as §1

Panc 03.27 = Panc 03.27 (Pancreas), 20 micromolar, 72 hrs
Procedure, shortened: as §1

HEC-1-A = HEC-1-A (Uterus), 20 micromolar, 72 hrs
Procedure, shortened: as §1

ChaGo-K-1 = ChaGo-K-1 (Lung), 20 micromolar, 72 hrs
Procedure, shortened: as §1

NCI-H524 = NCI-H524 (Lung), 20 micromolar, 72 hrs
Procedure, shortened: as §1

Colo 205 = details: Colo 205, 20 micromolar, 72 hrs
Procedure, shortened: as §1

NCI-H2405 = NCI-H2405 (Lung), 20 micromolar, 72 hrs
Procedure, shortened: as §1

MSTO-211-H = MSTO-211-H (Lung), 20 micromolar, 72 hrs
Procedure, shortened: as §1

Structure (SMILES): COc1cc(O)c2c(=O)c3cc(CC=C(C)C)c(O)c(O)c3oc2c1CC=C(C)C [Go-15]
- Percent Inhibition (HGC-27): 98%
- Percent Inhibition (T47D): 70%
- Percent Inhibition (CCF-STTG1): 84%
- Percent Inhibition (HT-1197): 51%
- Percent Inhibition (T98G): 98%
- Percent Inhibition (HPAF-II): 72%
- Percent Inhibition (NCI-H1770): 75%
- Percent Inhibition (A498): 78%
- Percent Inhibition (HCC1395): 25%
- Percent Inhibition (ZR-75-30): 83%
- Percent Inhibition (HCC1569): 86%
- Percent Inhibition (SW13): 95%
- Percent Inhibition (NCI-H1623): 78%
- Percent Inhibition (M059J): 88%
- Percent Inhibition (A704): 92%
- Percent Inhibition (BT-549): 87%
- Percent Inhibition (Bel-7402): 64%
- Percent Inhibition (RL95): 94%
- Percent Inhibition (HCC1937): 85%
- Percent Inhibition (C8166): 93%
- Percent Inhibition (CW-2): 96%
- Percent Inhibition (NCI-H2347): 51%
- Percent Inhibition (J82): 74%
- Percent Inhibition (C3A): 60%
- Percent Inhibition (BT-474): 82%
- Percent Inhibition (NCI-H1694): 97%
- Percent Inhibition (NCI-H28): 74%
- Percent Inhibition (HCC1599): 62%
- Percent Inhibition (TCCSUP): 88%
- Percent Inhibition (Panc 03.27): 86%
- Percent Inhibition (HEC-1-A): 67%
- Percent Inhibition (ChaGo-K-1): 11%
- Percent Inhibition (NCI-H524): 98%
- Percent Inhibition (Colo 205): 89%
- Percent Inhibition (NCI-H2405): 50%
- Percent Inhibition (MSTO-211-H): 69%

Structure (SMILES): CC(C)=CCc1c(O)c(O)cc2oc3cc(O)cc(O)c3c(=O)c12 [bn-10, 1,3,6,7-tetrahydroxy-8-(3-methylbut-2-enyl)xanthone]
- Percent Inhibition (HGC-27): 30%
- Percent Inhibition (T47D): 4%
- Percent Inhibition (CCF-STTG1): 8%
- Percent Inhibition (HT-1197): 8%
- Percent Inhibition (T98G): 21%
- Percent Inhibition (HPAF-II): -2%
- Percent Inhibition (NCI-H1770): 0%
- Percent Inhibition (A498): 25%
- Percent Inhibition (HCC1395): 8%
- Percent Inhibition (ZR-75-30): 77%
- Percent Inhibition (HCC1569): 16%
- Percent Inhibition (SW13): 11%
- Percent Inhibition (NCI-H1623): -10%
- Percent Inhibition (M059J): 9%
- Percent Inhibition (A704): -11%
- Percent Inhibition (BT-549): -4%
- Percent Inhibition (Bel-7402): 7%
- Percent Inhibition (RL95): 15%
- Percent Inhibition (HCC1937): 32%
- Percent Inhibition (C8166): 23%
- Percent Inhibition (CW-2): 25%
- Percent Inhibition (NCI-H2347): 9%
- Percent Inhibition (J82): 29%
- Percent Inhibition (C3A): 20%
- Percent Inhibition (BT-474): -3%
- Percent Inhibition (NCI-H1694): 28%
- Percent Inhibition (NCI-H28): 12%
- Percent Inhibition (HCC1599): 77%
- Percent Inhibition (TCCSUP): 33%
- Percent Inhibition (Panc 03.27): -1%
- Percent Inhibition (HEC-1-A): 22%
- Percent Inhibition (ChaGo-K-1): 18%
- Percent Inhibition (NCI-H524): -20%
- Percent Inhibition (Colo 205): 19%
- Percent Inhibition (NCI-H2405): -8%
- Percent Inhibition (MSTO-211-H): 4%

Structure (SMILES): O=C1c2c(O)cc(O)cc2OC(c2ccc(O)c(O)c2)C1O (stereo not drawn) [gl-34]
- Percent Inhibition (HGC-27): -8%
- Percent Inhibition (T47D): -6%
- Percent Inhibition (CCF-STTG1): 4%
- Percent Inhibition (HT-1197): 10%
- Percent Inhibition (T98G): 1%
- Percent Inhibition (HPAF-II): 6%
- Percent Inhibition (NCI-H1770): 0%
- Percent Inhibition (A498): 2%
- Percent Inhibition (HCC1395): 16%
- Percent Inhibition (ZR-75-30): 14%
- Percent Inhibition (HCC1569): 3%
- Percent Inhibition (SW13): -13%
- Percent Inhibition (NCI-H1623): -7%
- Percent Inhibition (M059J): 9%
- Percent Inhibition (A704): -13%
- Percent Inhibition (BT-549): -9%
- Percent Inhibition (Bel-7402): -9%
- Percent Inhibition (RL95): 3%
- Percent Inhibition (HCC1937): 8%
- Percent Inhibition (C8166): 7%
- Percent Inhibition (CW-2): 7%
- Percent Inhibition (NCI-H2347): 2%
- Percent Inhibition (J82): 3%
- Percent Inhibition (C3A): -13%
- Percent Inhibition (BT-474): -15%
- Percent Inhibition (NCI-H1694): 10%
- Percent Inhibition (NCI-H28): -11%
- Percent Inhibition (HCC1599): 42%
- Percent Inhibition (TCCSUP): 4%
- Percent Inhibition (Panc 03.27): 9%
- Percent Inhibition (HEC-1-A): -5%
- Percent Inhibition (ChaGo-K-1): -3%
- Percent Inhibition (NCI-H524): -31%
- Percent Inhibition (Colo 205): 1%
- Percent Inhibition (NCI-H2405): -5%
- Percent Inhibition (MSTO-211-H): -9%

Structure (SMILES): CC1(C)C=Cc2c(cc(O)c3c(=O)c4ccc(O)c(O)c4oc23)O1 [gl-18]
- Percent Inhibition (HGC-27): 92%
- Percent Inhibition (T47D): 83%
- Percent Inhibition (CCF-STTG1): 81%
- Percent Inhibition (HT-1197): 90%
- Percent Inhibition (T98G): 91%
- Percent Inhibition (HPAF-II): 82%
- Percent Inhibition (NCI-H1770): 89%
- Percent Inhibition (A498): 74%
- Percent Inhibition (HCC1395): 94%
- Percent Inhibition (ZR-75-30): 95%
- Percent Inhibition (HCC1569): 81%
- Percent Inhibition (SW13): 96%
- Percent Inhibition (NCI-H1623): 77%
- Percent Inhibition (M059J): 91%
- Percent Inhibition (A704): 66%
- Percent Inhibition (BT-549): 86%
- Percent Inhibition (Bel-7402): 78%
- Percent Inhibition (RL95): 94%
- Percent Inhibition (HCC1937): 85%
- Percent Inhibition (C8166): 92%
- Percent Inhibition (CW-2): 95%
- Percent Inhibition (NCI-H2347): 84%
- Percent Inhibition (J82): 88%
- Percent Inhibition (C3A): 81%
- Percent Inhibition (BT-474): 92%
- Percent Inhibition (NCI-H1694): 98%
- Percent Inhibition (NCI-H28): 77%
- Percent Inhibition (HCC1599): 92%
- Percent Inhibition (TCCSUP): 85%
- Percent Inhibition (Panc 03.27): 96%
- Percent Inhibition (HEC-1-A): 81%
- Percent Inhibition (ChaGo-K-1): 91%
- Percent Inhibition (NCI-H524): 96%
- Percent Inhibition (Colo 205): 96%
- Percent Inhibition (NCI-H2405): 66%
- Percent Inhibition (MSTO-211-H): 85%

Structure (SMILES): CC1(C)C=Cc2cc3c(=O)c4c(O)cc(O)cc4oc3c(O)c2O1 [Go-11]
- Percent Inhibition (HGC-27): 54%
- Percent Inhibition (T47D): 35%
- Percent Inhibition (CCF-STTG1): 44%
- Percent Inhibition (HT-1197): 39%
- Percent Inhibition (T98G): 68%
- Percent Inhibition (HPAF-II): 18%
- Percent Inhibition (NCI-H1770): 38%
- Percent Inhibition (A498): 37%
- Percent Inhibition (HCC1395): 68%
- Percent Inhibition (ZR-75-30): 62%
- Percent Inhibition (HCC1569): 41%
- Percent Inhibition (SW13): 24%
- Percent Inhibition (NCI-H1623): -10%
- Percent Inhibition (M059J): 78%
- Percent Inhibition (A704): 24%
- Percent Inhibition (BT-549): 46%
- Percent Inhibition (Bel-7402): 16%
- Percent Inhibition (RL95): 72%
- Percent Inhibition (HCC1937): 21%
- Percent Inhibition (C8166): 71%
- Percent Inhibition (CW-2): 61%
- Percent Inhibition (NCI-H2347): 10%
- Percent Inhibition (J82): 52%
- Percent Inhibition (C3A): 19%
- Percent Inhibition (BT-474): 31%
- Percent Inhibition (NCI-H1694): 73%
- Percent Inhibition (NCI-H28): 33%
- Percent Inhibition (HCC1599): 49%
- Percent Inhibition (TCCSUP): 43%
- Percent Inhibition (Panc 03.27): 39%
- Percent Inhibition (HEC-1-A): 38%
- Percent Inhibition (ChaGo-K-1): 75%
- Percent Inhibition (NCI-H524): 83%
- Percent Inhibition (Colo 205): 11%
- Percent Inhibition (NCI-H2405): 3%
- Percent Inhibition (MSTO-211-H): 66%

Reference: paper PMC4450297, “Screening Active Compounds from Garcinia Species Native to China Reveals Novel Compounds Targeting the STAT/JAK Signaling Pathway” (BioMed Research International, 2015)
